Results from US20090036547A1 (priority 2005, published 2009).

How the values were obtained:
[1] = system: Anopheles gambiae (susceptible) KWA larvae; assay: WHO standard larval bioassay; assay type: in vivo; conditions: Example 2, An. Gambiae Susceptible, 10% working dilution in ethanol (mixture 5%+5%), 24 hours
[2] = system: Anopheles stephensi (susceptible) Beech larvae; assay: WHO standard larval bioassay; assay type: in vivo; conditions: Example 2, An. Stephensi Susceptible, 10% working dilution in ethanol (mixture 5%+5%), 24 hours
[3] = system: Anopheles albimanus (susceptible) Mexico larvae; assay: WHO standard larval bioassay; assay type: in vivo; conditions: Example 2, An. Albimanus Susceptible, 10% working dilution in ethanol (mixture 5%+5%), 24 hours
[4] = system: Aedes aegypti (susceptible) AeAe larvae; assay: WHO standard larval bioassay; assay type: in vivo; conditions: Example 2, Ae. Aegypti Susceptible, 10% working dilution in ethanol (mixture 5%+5%), 24 hours
[5] = system: Aedes albopictus (susceptible) Albo larvae; assay: WHO standard larval bioassay; assay type: in vivo; conditions: Example 2, Ae. albopictus Susceptible, 10% working dilution in ethanol (mixture 5%+5%), 24 hours
[6] = system: Culex quinquefasciatus (susceptible) Muheza larvae; assay: WHO standard larval bioassay; assay type: in vivo; conditions: Example 2, Cx. quinquefasciatus Susceptible, 10% working dilution in ethanol (mixture 5%+5%), 24 hours
[7] = system: Culex pipiens pipiens (susceptible) Pip larvae; assay: WHO standard larval bioassay; assay type: in vivo; conditions: Example 2, Cx. pipiens Susceptible, 10% working dilution in ethanol (mixture 5%+5%), 24 hours
[8] = system: Anopheles gambiae (DDT resistant) ZANDS larvae; assay: WHO standard larval bioassay; assay type: in vivo; conditions: Example 2, An. Gambiae DDT Resistant, 10% working dilution in ethanol (mixture 5%+5%), 24 hours
[9] = system: Anopheles gambiae (Pyrethroid Resistant) VKPR larvae; assay: WHO standard larval bioassay; assay type: in vivo; conditions: Example 2, An. Gambiae Py. Resistant, 10% working dilution in ethanol (mixture 5%+5%), 24 hours
[10] = system: Anopheles stephensi (Organophosphate Resistant) ST Mal larvae; assay: WHO standard larval bioassay; assay type: in vivo; conditions: Example 2, An. Stephensi OP Resistant, 10% working dilution in ethanol (mixture 5%+5%), 24 hours
[11] = system: Anopheles albimanus (Carbamate Resistant) FEST larvae; assay: WHO standard larval bioassay; assay type: in vivo; conditions: Example 2, An. albimanus Carbamate Resistant, 10% working dilution in ethanol (mixture 5%+5%), 24 hours
[12] = system: range of mosquito species (larvae); assay: WHO standard larval bioassay, summary over all strains; assay type: in vivo, Anopheles, Aedes, Culex; conditions: Example 2, LD90 similar in susceptible and resistant strains

## Cc1ccc(C(C)C)c(O)c1 [Thymol]
[1]
  LD90: 0.177 mL
[2]
  LD90: 0.112 mL
[3]
  LD90: 0.115 mL
[4]
  LD90: 0.302 mL
[5]
  LD90: 0.172 mL
[6]
  LD90: 0.330 mL
[7]
  LD90: 0.135 mL
[8]
  LD90: 0.235 mL
[9]
  LD90: 0.261 mL
[10]
  LD90: 0.177 mL
[11]
  LD90: 0.224 mL
[12]
  cross resistance to existing insecticide classes (pyrethroids/OP's/Carbamates/Organochlorines): no evidence of cross resistance

## Cc1ccc(C(C)C)cc1 [p-Cymene, p-cymene]
[1]
  LD90: 0.140 mL
[2]
  LD90: 0.085 mL
[3]
  LD90: 0.088 mL
[4]
  LD90: 0.198 mL
[5]
  LD90: 0.150 mL
[6]
  LD90: 0.215 mL
[7]
  LD90: 0.120 mL
[8]
  LD90: 0.204 mL
[9]
  LD90: 0.202 mL
[10]
  LD90: 0.134 mL
[11]
  LD90: 0.191 mL
[12]
  cross resistance to existing insecticide classes (pyrethroids/OP's/Carbamates/Organochlorines): no evidence of cross resistance
